Assay results taken from patent US20230021483A1, “[…] […] METHOD AND CLASSIFICATION OF PHARMACEUTICAL COMPONENTS BY USING TRANSCRIPTOMES” (National Institutes of Biomedical Innovation, Health and …, priority 2016, published 2023).

System: preferentially upregulated genes in LV, SP, LN
Assay: Z-score-based differential gene expression analysis (adjuvant group- or adjuvant-associated genes, 40 module mapping, TargetMine annotation)
Type: in vivo, C57BL/6 mice
Conditions: LV
How it was run: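 Per-sample fold-change values converted to gene-wise z-scores within each organ's data set, then triplicate z-scores summed per adjuvant. Genes with summed score >3 taken as preferentially expressed; gene groups defined by combined per-adjuvant z-score thresholds (z>1 to z>3) specific to each organ.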

## K3: B class CpG ODN (ATCGACTCTCGAGCGTTCTC), TLR9 ligand (chemistry not given here)
ID, sample x1
  Adar 1434268_at (Group G1, Modules 20): −0.6
  Ddx58 1436562_at (Group G1, Modules 20): −0.3
  Ddx58 1456890_at (Group G1, Modules 20): −0.4
  Eif2ak2 1422005_at (Group G1, Modules 20): −0.5
  G3bp2 1421323_a_at (Group G1, Modules 20): −0.4
  Gm9706///Isg15 1431591_s_at (Group G1, Modules 20): −0.5
  H2-T10///H2-T22///H2-T9 1449875_s_at (Group G1, Modules 20): −0.3
  Ifih1 1426276_at (Group G1, Modules 20): −0.4
  Ifit1 1450783_at (Group G1, Modules 20): −0.5
  Ifit3 1449025_at (Group G1, Modules 20): −0.5
  Irf7 1417244_a_at (Group G1, Modules 20): −0.4
  Irgm1 1418825_at (Group G1, Modules 20): −0.5
  Mndal 1426906_at (Group G1, Modules 20): −0.3
  Pml 1448757_at (Group G1, Modules 20): −0.4
  Pml 1456103_at (Group G1, Modules 20): −0.5
  Rnf213 1455500_at (Group G1, Modules 20): −0.5
  Rsad2 1436058_at (Group G1, Modules 20): −0.5
  Shisa5 1423986_a_at (Group G1, Modules 20): −0.5
  Shisa5 1437503_a_at (Group G1, Modules 20): −0.5
  Stat1 1450033_a_at (Group G1, Modules 20): −0.5
  Stat1 1450034_at (Group G1, Modules 20): −0.4
  Tdrd7 1426716_at (Group G1, Modules 20): −0.3
  Tor1aip2 1418115_s_at (Group G1, Modules 20): −0.3
  Tor1aip2 1418116_at (Group G1, Modules 20): −0.4
  Tor1aip2 1435526_at (Group G1, Modules 20): −0.4
  Trim12a 1437432_a_at (Group G1, Modules 20): −0.6
  Uba7 1426970_a_at (Group G1, Modules 20): −0.2
ID, sample x2
  Adar 1425405_a_at (Group G1, Modules 20): −0.7
  Adar 1434268_at (Group G1, Modules 20): −0.5
  Ddx58 1436562_at (Group G1, Modules 20): −0.4
  Ddx58 1456890_at (Group G1, Modules 20): −0.4
  Eif2ak2 1422005_at (Group G1, Modules 20): −0.5
  G3bp2 1421323_a_at (Group G1, Modules 20): −0.5
  Gm9706///Isg15 1431591_s_at (Group G1, Modules 20): −0.5
  H2-T10///H2-T22///H2-T9 1449875_s_at (Group G1, Modules 20): −0.5
  Ifih1 1426276_at (Group G1, Modules 20): −0.4
  Ifit1 1450783_at (Group G1, Modules 20): −0.5
  Ifit3 1449025_at (Group G1, Modules 20): −0.5
  Irf7 1417244_a_at (Group G1, Modules 20): −0.4
  Irgm1 1418825_at (Group G1, Modules 20): −0.6
  Mndal 1426906_at (Group G1, Modules 20): −0.3
  Pml 1448757_at (Group G1, Modules 20): −0.6
  Pml 1456103_at (Group G1, Modules 20): −0.6
  Rnf213 1455500_at (Group G1, Modules 20): −0.5
  Rsad2 1436058_at (Group G1, Modules 20): −0.5
  Shisa5 1423986_a_at (Group G1, Modules 20): −0.5
  Shisa5 1437503_a_at (Group G1, Modules 20): −0.3
  Stat1 1450033_a_at (Group G1, Modules 20): −0.5
  Stat1 1450034_at (Group G1, Modules 20): −0.5
  Tdrd7 1426716_at (Group G1, Modules 20): −0.6
  Tor1aip2 1418115_s_at (Group G1, Modules 20): −0.3
  Tor1aip2 1418116_at (Group G1, Modules 20): −0.5
  Tor1aip2 1435526_at (Group G1, Modules 20): −0.5
  Trim12a 1437432_a_at (Group G1, Modules 20): −0.5
  Uba7 1426970_a_at (Group G1, Modules 20): −0.3
IP, sample x1
  Adar 1425405_a_at (Group G1, Modules 20): −0.5
